Results on twelve compounds are retold here after patent US20260273072A1, “NOVEL PLK1 DEGRADATION INDUCING COMPOUND” (UPPTHERA, INC., priority 2023, published 2026).

Structures are written as SMILES. A value given as a limit tells only on which side of the number the result lay.

Common to all, as to type: cell-based
For one test, the system named is NCI-H526 cell line. Briefly: Cell viability assay for NCI-H526 cell line (EZ-Cytox). As to conditions: Homo sapiens, NCI-H526, 120 h; H526 cells, 5 days, 3000 nM to 0.46 nM. Summed up: (§1)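 Human SCLC lines cultured with compound for 5 days in a CO2 incubator; viability read by EZ-Cytox absorbance at 450 nm after 3 min shaking. IC50 reported in activity bins (A: <30 nM up to E: <400 nM).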

The target of another test is T1, PLK1 (Homo sapiens, UniProt P53350).
T1 construct: endogenous in cells; host or cells: HeLa LgBit (Plk1-HiBit KI): HeLa stably expressing LgBit, with a CRISPR/Cas9 knock-in of HiBit at the endogenous PLK1 locus
T1 sequence (P53350 whole entry): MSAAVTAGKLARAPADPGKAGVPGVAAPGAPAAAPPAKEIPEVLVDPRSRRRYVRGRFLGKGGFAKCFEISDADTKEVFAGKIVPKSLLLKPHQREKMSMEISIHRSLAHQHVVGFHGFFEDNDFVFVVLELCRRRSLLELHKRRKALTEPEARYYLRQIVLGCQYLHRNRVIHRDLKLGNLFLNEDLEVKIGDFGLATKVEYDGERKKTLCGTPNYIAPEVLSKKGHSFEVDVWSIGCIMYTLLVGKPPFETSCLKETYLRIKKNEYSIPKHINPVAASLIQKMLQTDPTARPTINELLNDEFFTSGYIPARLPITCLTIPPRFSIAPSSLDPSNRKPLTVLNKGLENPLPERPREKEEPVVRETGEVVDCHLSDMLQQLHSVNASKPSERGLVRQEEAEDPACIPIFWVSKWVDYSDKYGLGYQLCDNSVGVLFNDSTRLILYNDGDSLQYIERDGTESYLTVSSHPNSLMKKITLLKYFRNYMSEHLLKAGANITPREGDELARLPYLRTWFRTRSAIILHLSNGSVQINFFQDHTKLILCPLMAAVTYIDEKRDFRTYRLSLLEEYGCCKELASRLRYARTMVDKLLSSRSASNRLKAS
Briefly: Luciferase assay for PLK1 in HeLa LgBit (Plk1-HiBit KI) cell line. As to conditions: 300 nM compound, luminescence after 9 hours. A digest of the protocol: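 HeLa LgBit cells with endogenous PLK1 C-terminally HiBit-tagged by CRISPR knock-in; released from 24 h 2 mM thymidine block, seeded, grown 18 h. Compounds at 300 nM with Endurazine substrate; luminescence (470-480 nm) tracked in real time, expressed as ratio to DMSO.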
A general note: The HiBiT peptide binds its large partner to form an active luciferase.

The test system of another test is NCI-H69 cell line. In words: Cell viability assay for NCI-H69 cell line (EZ-Cytox). As to conditions: Homo sapiens, NCI-H69, 120 h; H69 cells, 5 days, 3000 nM to 0.46 nM. A digest of the protocol:
as §1

Another test deals with MRC-5 cell line. Briefly: Cell viability assay for MRC-5 cell line (EZ-Cytox). The settings on record: Homo sapiens, MRC5, 120 h; MRC-5 normal cell line, 5 days, 10000 nM to 1.52 nM; read-out: Activity: IC50 value, cell viability, MRC-5 cell line (Exemplary Compounds). On the procedure:
4. Cell Viability Assay for MRC-5 Cell Line
(1) Culture of MRC-5 Cell Line
The MRC-5 cell line was purchased from KCLB. Passage of cultured cells was maintained within P15.
(2) Treatment of Compounds of the Present Invention
Then, it was cultured in 37° C. CO2 incubator (Thermo Fisher Scientific) for 5 days.
(3) Cytotoxicity Experiment
CO2 incubator for 4 hours.

`COc1cc(C(=O)NC2CCN(CCC3CCN(c4ccc(NC5CCC(=O)NC5=O)cc4F)CC3)CC2)ccc1Nc1ncc2c(n1)N(C1CCCC1)CC(F)(F)C(=O)N2C` (stereo not drawn) [Compound 30, 4-((9-cyclopentyl-7,7-difluoro-5-methyl-6-oxo-6,7,8,9-tetrahydro-5H-pyrimido[4,5-b][1,4]diazepin-2-yl)amino)-N-(1-(2-(1-(4-((2,6-dioxopiperidin-3-yl)amino)-2-fluorophenyl)piperidin-4-yl)ethyl)piperidin-4-yl)-3-methoxybenzamide]: the concentration for half-maximal inhibition (IC50) (commonly the concentration that inhibits the measured activity by half) is below 30 nM with NCI-H526 cell line, below 30 nM with NCI-H69 cell line and above 10000 nM with MRC-5 cell line. Besides, the “Activity: ratio of the luminescence value of compound treatment group to DMSO treatment group” value (“Activity: ratio” below) on PLK1 was “+++ (+++: <0.3)”.
For `COc1cc(C(=O)NN2CCC(CCN3CCN(c4cc(OC)c(NC5CCC(=O)NC5=O)cc4F)CC3)CC2)ccc1Nc1ncc2c(n1)N(C1CCCC1)CC(F)(F)C(=O)N2C` (stereo not drawn) [Compound 40, 4-((9-cyclopentyl-7,7-difluoro-5-methyl-6-oxo-6,7,8,9-tetrahydro-5H-pyrimido[4,5-b][1,4]diazepin-2-yl)amino)-N-(4-(2-(4-(4-((2,6-dioxopiperidin-3-yl)amino)-2-fluoro-5-methoxyphenyl)piperazin-1-yl)ethyl)piperidin-1-yl)-3-methoxybenzamide], the concentration for half-maximal inhibition (IC50) in the test with NCI-H526 cell line was below 30 nM; in the test on NCI-H69 cell line, below 30 nM; in the test on MRC-5 cell line, above 10000 nM. Further, the “Activity: ratio” value on PLK1 is listed as “+++ (+++: <0.3)”.
With `COc1cc(C(=O)NC2CCC(N(C)CC3CCN(c4cnc(C5CCC(=O)NC5=O)cc4F)CC3)CC2)ccc1Nc1ncc2c(n1)N(C1CCCC1)CC(F)(F)C(=O)N2C` (stereo not drawn) [Compound 20, 4-((9-cyclopentyl-7,7-difluoro-5-methyl-6-oxo-6,7,8,9-tetrahydro-5H-pyrimido[4,5-b][1,4]diazepin-2-yl)amino)-N-((1r,4r)-4-(((1-(6-(2,6-dioxopiperidin-3-yl)-4-fluoropyridin-3-yl)piperidin-4-yl)methyl)(methyl)amino)cyclohexyl)-3-methoxybenzamide], the IC50 with NCI-H526 cell line was below 30 nM; in the test with NCI-H69 cell line, below 30 nM; in the test on MRC-5 cell line it was above 10000 nM. For the same compound, at PLK1, the “Activity: ratio” value is “+++ (+++: <0.3)”.
As for `COc1cc(C(=O)NN2CCC(CCN3CCN(c4cc(OC)c(C5CCC(=O)NC5=O)cc4F)CC3)CC2)ccc1Nc1ncc2c(n1)N(C(C)C)CC(F)(F)C(=O)N2C` (stereo not drawn) [Compound 7, 4-((7,7-difluoro-9-isopropyl-5-methyl-6-oxo-6,7,8,9-tetrahydro-5H-pyrimido[4,5-b][1,4]diazepin-2-yl)amino)-N-(4-(2-(4-(4-(2,6-dioxopiperidin-3-yl)-2-fluoro-5-methoxyphenyl)piperazin-1-yl)ethyl)piperidin-1-yl)-3-methoxybenzamide], the IC50 in the test with NCI-H526 cell line was below 50 nM; in the test with NCI-H69 cell line, below 50 nM; in the test on MRC-5 cell line it was above 10000 nM. In addition, the “Activity: ratio” value on PLK1 is “++ (++: <0.5)”.
As to `COc1cc(C(=O)NN2CCC(CCN3CCN(c4cc(F)c(NC5CCC(=O)NC5=O)cc4OC)CC3)CC2)ccc1Nc1ncc2c(n1)N(C1CCCC1)CC(F)(F)C(=O)N2C` (stereo not drawn) [Compound 56, 4-((9-cyclopentyl-7,7-difluoro-5-methyl-6-oxo-6,7,8,9-tetrahydro-5H-pyrimido[4,5-b][1,4]diazepin-2-yl)amino)-N-(4-(2-(4-(4-((2,6-dioxopiperidin-3-yl)amino)-5-fluoro-2-methoxyphenyl)piperazin-1-yl)ethyl)piperidin-1-yl)-3-methoxybenzamide], the half-maximal inhibitory concentration (IC50) in the test with NCI-H526 cell line is below 30 nM; in the test on NCI-H69 cell line it was below 30 nM; with MRC-5 cell line it was above 10000 nM. Besides, the “Activity: ratio” value at PLK1 is reported as “++ (++: <0.5)”.
On to `COc1cc(C(=O)NC2CC3(CCN(CC4CCN(c5cnc(C6CCC(=O)NC6=O)cc5C)CC4)CC3)C2)ccc1Nc1ncc2c(n1)N(C1CCCC1)CC(F)(F)C(=O)N2C` (stereo not drawn) [Compound 17, 4-((9-cyclopentyl-7,7-difluoro-5-methyl-6-oxo-6,7,8,9-tetrahydro-5H-pyrimido[4,5-b][1,4]diazepin-2-yl)amino)-N-(7-((1-(6-(2,6-dioxopiperidin-3-yl)-4-methylpyridin-3-yl)piperidin-4-yl)methyl)-7-azaspiro[3.5]nonan-2-yl)-3-methoxybenzamide], for which the half-inhibitory concentration (IC50) in the test with NCI-H526 cell line is below 30 nM; in the test on NCI-H69 cell line, below 30 nM; in the test on MRC-5 cell line, above 10000 nM. In addition, the “Activity: ratio” value on PLK1 is “+++ (+++: <0.3)”.
For the compound `COc1cc(C(=O)NN2CCC(N3CC4(CCN(c5cccc(C6CCC(=O)NC6=O)c5)CC4)C3)CC2)ccc1Nc1ncc2c(n1)N(C1CCCC1)CC(F)(F)C(=O)N2C` (stereo not drawn) [Compound 1, 4-((9-cyclopentyl-7,7-difluoro-5-methyl-6-oxo-6,7,8,9-tetrahydro-5H-pyrimido[4,5-b][1,4]diazepin-2-yl)amino)-N-(4-(7-(3-(2,6-dioxopiperidin-3-yl)phenyl)-2,7-diazaspiro[3.5]nonan-2-yl)piperidin-1-yl)-3-methoxybenzamide], the IC50 with NCI-H526 cell line is below 30 nM; in the test with NCI-H69 cell line, below 50 nM; in the test with MRC-5 cell line, above 10000 nM. For the same compound, the “Activity: ratio” value at PLK1 is given as “++ (++: <0.5)”.
Take `COc1cc(C(=O)NC2CC3(CCN(CC4CCN(c5cc(OC)c(NC6CCC(=O)NC6=O)cc5F)CC4)CC3)C2)c(F)cc1Nc1ncc2c(n1)N(C(C)C)CC(F)(F)C(=O)N2C` (stereo not drawn) [Compound 52, 4-((7,7-difluoro-9-isopropyl-5-methyl-6-oxo-6,7,8,9-tetrahydro-5H-pyrimido[4,5-b][1,4]diazepin-2-yl)amino)-N-(7-((1-(4-((2,6-dioxopiperidin-3-yl)amino)-2-fluoro-5-methoxyphenyl)piperidin-4-yl)methyl)-7-azaspiro[3.5]nonan-2-yl)-2-fluoro-5-methoxybenzamide]: the values for the IC50 in the test on NCI-H526 cell line, with NCI-H69 cell line and with MRC-5 cell line were below 30 nM, below 30 nM and above 10000 nM, respectively. Further, the “Activity: ratio” value on PLK1 is “++ (++: <0.5)”.
Consider `COc1cc(C(=O)NN2CCC(CCN3CCN(c4ccc(NC5CCC(=O)NC5=O)c(F)c4)CC3)CC2)ccc1Nc1ncc2c(n1)N(C(C)C)CC(F)(F)C(=O)N2C` (stereo not drawn) [Compound 33, 4-((7,7-difluoro-9-isopropyl-5-methyl-6-oxo-6,7,8,9-tetrahydro-5H-pyrimido[4,5-b][1,4]diazepin-2-yl)amino)-N-(4-(2-(4-(4-((2,6-dioxopiperidin-3-yl)amino)-3-fluorophenyl)piperazin-1-yl)ethyl)piperidin-1-yl)-3-methoxybenzamide], for which the IC50 in the test on NCI-H526 cell line is below 30 nM; in the test with NCI-H69 cell line, below 30 nM; in the test with MRC-5 cell line, above 10000 nM. Moreover, at PLK1, the “Activity: ratio” value is given as “++ (++: <0.5)”.
For the compound `COc1cc(C(=O)NN2CCC(C3CCN(c4ccc(C5CCC(=O)NC5=O)cc4F)C3)CC2)ccc1Nc1ncc2c(n1)N(C(C)C)CC(F)(F)C(=O)N2C` (stereo not drawn) [Compound 2, 4-((7,7-difluoro-9-isopropyl-5-methyl-6-oxo-6,7,8,9-tetrahydro-5H-pyrimido[4,5-b][1,4]diazepin-2-yl)amino)-N-(4-(1-(4-(2,6-dioxopiperidin-3-yl)-2-fluorophenyl)pyrrolidin-3-yl)piperidin-1-yl)-3-methoxybenzamide], the concentration for half-maximal inhibition (IC50) in the test on NCI-H526 cell line is below 50 nM; in the test with NCI-H69 cell line it was below 100 nM; in the test on MRC-5 cell line, above 10000 nM. Further, the “Activity: ratio” value at PLK1 is listed as “++ (++: <0.5)”.
On the same counts, the results for `COc1cc(C(=O)NC2CCC(N(C)CC3CCN(c4cnc(C5CCC(=O)NC5=O)cc4C)CC3)CC2)ccc1Nc1ncc2c(n1)N(C1CCCC1)CC(F)(F)C(=O)N2C` (stereo not drawn) [Compound 14, 4-((9-cyclopentyl-7,7-difluoro-5-methyl-6-oxo-6,7,8,9-tetrahydro-5H-pyrimido[4,5-b][1,4]diazepin-2-yl)amino)-N-((1r,4r)-4-(((1-(6-(2,6-dioxopiperidin-3-yl)-4-methylpyridin-3-yl)piperidin-4-yl)methyl)(methyl)amino)cyclohexyl)-3-methoxybenzamide] are below 30 nM, below 30 nM, above 10000 nM and “+++ (+++: <0.3)”.
For `COc1cc(C(=O)NN2CCC(CCN3CCN(c4ccc(NC5CCC(=O)NC5=O)c(F)c4F)CC3)CC2)ccc1Nc1ncc2c(n1)N(C1CCCC1)CC(F)(F)C(=O)N2C` (stereo not drawn) [Compound 71, 4-((9-cyclopentyl-7,7-difluoro-5-methyl-6-oxo-6,7,8,9-tetrahydro-5H-pyrimido[4,5-b][1,4]diazepin-2-yl)amino)-N-(4-(2-(4-(4-((2,6-dioxopiperidin-3-yl)amino)-2,3-difluorophenyl)piperazin-1-yl)ethyl)piperidin-1-yl)-3-methoxybenzamide] the same measures were below 30 nM, below 30 nM, above 10000 nM and “+++ (+++: <0.3)”.
